These results are taken from ChEMBL document CHEMBL1201862, “PubChem BioAssay data set” (2004).

The source made the active and inactive calls.

What is called AC50 is the concentration giving half of the maximal activity seen. As a reminder, the EC50 is the midpoint of the concentration-response curve. For orientation: IC50 means the concentration that inhibits the measured activity by half.

For series [1], the target named is UDP-galactopyranose mutase (Mycobacterium tuberculosis, UniProt P9WIQ1). As to the kind of experiment: Inhibitors of Mycobacterium tuberculosis UDP-galactopyranose mutase (UGM) enzyme Measured in Biochemical System Using Plate Reader - 2105-02_Inhibitor_Dose_CherryPick_Activity. [Related pubchem assays (depositor defined):AID504439].
UDP-galactopyranose mutase, sequence (P9WIQ1 whole entry): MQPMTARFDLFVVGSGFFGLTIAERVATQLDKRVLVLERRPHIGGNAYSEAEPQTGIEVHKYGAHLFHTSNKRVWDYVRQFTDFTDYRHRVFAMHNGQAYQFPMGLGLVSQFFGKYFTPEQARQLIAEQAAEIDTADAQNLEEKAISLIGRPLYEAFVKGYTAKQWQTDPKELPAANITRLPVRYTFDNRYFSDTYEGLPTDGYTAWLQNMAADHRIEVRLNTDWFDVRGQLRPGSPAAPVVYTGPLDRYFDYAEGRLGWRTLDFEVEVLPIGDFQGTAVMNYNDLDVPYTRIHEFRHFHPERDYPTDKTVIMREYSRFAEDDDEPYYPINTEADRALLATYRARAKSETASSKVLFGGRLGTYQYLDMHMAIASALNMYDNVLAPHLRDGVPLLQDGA
The target in series [2] is Kappa-type opioid receptor (Homo sapiens, UniProt P41145). As to the kind of experiment: SAR analysis of small molecule agonists of the kappa opioid receptor via a luminescent beta-arrestin assay - Set 3. [Related pubchem assays (depositor defined):AID1777, AID1785, AID1786, AID1966, AID2133, AID2136, AID2284, AID2500]. The format is functional.
Kappa-type opioid receptor, sequence (P41145 whole entry): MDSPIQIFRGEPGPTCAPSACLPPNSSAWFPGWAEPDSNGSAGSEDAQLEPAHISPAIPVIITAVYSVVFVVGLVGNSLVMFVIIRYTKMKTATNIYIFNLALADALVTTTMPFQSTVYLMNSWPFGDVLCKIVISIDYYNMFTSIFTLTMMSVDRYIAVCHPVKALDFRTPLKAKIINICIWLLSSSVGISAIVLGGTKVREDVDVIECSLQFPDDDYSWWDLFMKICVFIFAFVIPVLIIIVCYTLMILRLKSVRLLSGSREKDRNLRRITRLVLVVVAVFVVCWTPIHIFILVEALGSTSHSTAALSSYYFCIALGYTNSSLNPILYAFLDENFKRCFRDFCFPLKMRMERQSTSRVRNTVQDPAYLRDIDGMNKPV
For another series, the target named is T1, Cysteine protease ATG4B (Homo sapiens, UniProt Q9Y4P1).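 Further: Fluorescence-based dose-response confirmation assay measuring inhibition of ATG4B activity.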
T1 sequence (Q9Y4P1 whole entry): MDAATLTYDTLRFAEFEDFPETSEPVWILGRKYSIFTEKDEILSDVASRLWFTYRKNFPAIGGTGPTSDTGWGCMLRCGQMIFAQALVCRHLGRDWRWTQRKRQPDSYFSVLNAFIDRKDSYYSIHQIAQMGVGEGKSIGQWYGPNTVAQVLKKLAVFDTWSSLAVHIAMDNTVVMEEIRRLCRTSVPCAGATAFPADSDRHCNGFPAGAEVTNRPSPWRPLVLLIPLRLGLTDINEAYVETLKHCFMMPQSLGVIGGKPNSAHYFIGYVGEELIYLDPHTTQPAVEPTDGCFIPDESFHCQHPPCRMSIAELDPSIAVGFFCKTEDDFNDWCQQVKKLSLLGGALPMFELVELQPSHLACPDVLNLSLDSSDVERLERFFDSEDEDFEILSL
The format is functional.

Series [3] deals with HEK293. As to the kind of experiment: cells. The settings on record: Homo sapiens.
Another series deals with Phospholipase A2 (Homo sapiens, UniProt P04054). The format is functional.
Phospholipase A2, sequence (P04054 whole entry): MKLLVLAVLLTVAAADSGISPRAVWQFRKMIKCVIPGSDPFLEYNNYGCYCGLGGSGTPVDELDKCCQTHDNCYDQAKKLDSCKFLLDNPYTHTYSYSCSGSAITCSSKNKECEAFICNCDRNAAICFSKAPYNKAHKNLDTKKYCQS
The test system of series [4] is HEK293. As to the kind of experiment: cells. The following applies: Homo sapiens. This is another data set of the same source.
Series [5] deals with T2, Cytochrome P450 1A2 (Homo sapiens, UniProt P05177).
T2 sequence (P05177 whole entry): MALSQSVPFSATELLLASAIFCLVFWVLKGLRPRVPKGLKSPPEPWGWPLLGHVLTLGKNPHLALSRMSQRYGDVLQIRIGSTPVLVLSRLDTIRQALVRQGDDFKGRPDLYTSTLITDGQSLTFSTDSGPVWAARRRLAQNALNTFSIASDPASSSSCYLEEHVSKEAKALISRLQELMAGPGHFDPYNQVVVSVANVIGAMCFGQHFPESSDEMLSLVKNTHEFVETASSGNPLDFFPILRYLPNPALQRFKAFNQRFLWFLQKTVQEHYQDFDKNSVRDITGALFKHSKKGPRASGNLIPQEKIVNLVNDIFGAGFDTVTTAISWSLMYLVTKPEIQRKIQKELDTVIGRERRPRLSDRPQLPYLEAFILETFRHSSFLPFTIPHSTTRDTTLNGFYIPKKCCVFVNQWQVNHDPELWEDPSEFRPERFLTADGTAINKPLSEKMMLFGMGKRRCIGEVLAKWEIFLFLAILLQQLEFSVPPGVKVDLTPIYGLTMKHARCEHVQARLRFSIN

For series [6], the target named is T2, Cytochrome P450 1A2. This is another data set of the same source.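 Further: PubChem cytochrome P450 panel assay, CYP1A2 panel member.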

Regarding `Cc1nn(C)cc1N1C(=O)c2cccc3c(N)ccc(c23)C1=O`, in series [1], the AC50 is 1.91 µM (active).

For the molecule `COc1ccc(Cn2c(SCc3ccc(Cl)c(C(F)(F)F)c3)nnc2-c2ccccn2)cc1`, the EC50 in series [2] is 18.8 µM (inactive).

Regarding `CCn1c(SCc2ccccc2Cl)nc2nc3c(cc2c1=O)CCCC3`, the IC50 at Cysteine protease ATG4B was 12.5 µM (active); at Phospholipase A2, 4.98 µM (active). For the same molecule, the EC50 in the series with HEK293 [3] and in the series on HEK293 [4] was > 59.6 µM (inactive) in each case.

As to `c1cncc([C@@H]2CCCCN2)c1` [ANABASINE], the AC50 at Cytochrome P450 1A2 [5] was 5.01 µM (inconclusive); on Cytochrome P450 1A2 [6] it was “inconclusive”.
